Measured values published in article PMC11189555, “Aryl amino acetamides prevent Plasmodium falciparum ring development via targeting the lipid-transfer protein PfSTART1” (Nature Communications, 2024).

Experiments:
Experiment in all cases: Solvent-PISA (solvent proteome profiling, DIA-MS)
Assay type in all cases: binding, Plasmodium falciparum
[1] = tested on: PF3D7_1351000 (START-domain protein); settings: 100 µM W-991 vs DMSO; Fig S4E
Procedure: (§1) The experiment was carried out in three biological replicates. Saponin-liberated mature parasite stages (30-42 hpi) were resuspended in PBS and lysed by 3x flash freeze/thawing using liquid N2, followed by 10 x mechanical sheering with a 29 G needle-syringe, and soluble protein isolation through ultracentrifugation (100,000 g; 20 min, 4 °C). Protein lysate was exposed to the 100 µM of W-991 or the vehicle control (DMSO) for 3 min and subsequently incubated with varying concentration of the solvent mixture ‘AEF’ (50% Acetone, 50% Ethanol, 0.1% Formate) to a final concentration of 7-25% (v/v) with 2% intervals, for 20 min at 37 °C at 800 rpm on a Thermomixer (Eppendorf). Denatured protein was pelleted through centrifugation (4 °C, 18,000 g, 20 min), and the soluble phase was recovered and pulled together in equivolume ratios into two samples; Gradient 1 ‘G1’: 7-15% EAF and Gradient 2 ‘G2’: 17-25% EAF, respectively.
(§2) Sample preparation for proteomic analysis was carried out using modified SP4 glass beads protocol. In brief, protein was reduced (20 mM TCEP, 100 mM TEAB) for 20 min at 55 °C and alkylated with 55 mM 2-Chloroacetamide for 30 min, followed by precipitation on beads in 80% ACN with a 6 min centrifugation at 21,000 g and 3 x wash with 80% Ethanol. Dried beads were subjected to sequential digestion with LysC (3 h, 1:50 ratio w/w) and trypsin (overnight, 1:50 ratio w/w), and the resulting digest was acidified with 1% TFA and desalted on T3 C18 stage tips (Affinisep) according to manufacturer’s specifications.
(§3) Peptide samples were analysed on Orbitrap Eclipse Tribrid mass spectrometer that is interfaced with the Neo Vanquish liquid chromatography system. Samples were loaded onto a C18 fused silica column (inner diameter 75 µm, OD 360 µm × 15 cm length, 1.6 µm C18 beads) packed into an emitter tip (IonOpticks) using pressure-controlled loading with a maximum pressure of 1,500 bar, that is interfaced to the mass spectrometer using Easy nLC source and electro sprayed directly into the mass spectrometer. Sample separation was carried out on a linear gradient 5% to 17% of solvent-B at 400 nL /min flow rate (solvent-B: 80% (by vol) acetonitrile) for 23 min and 17% to 25% solvent-B for 10 min, 25% to 34% for 11 min and 34% to 90% solvent-B for 1 min which was maintained at 90% B for 3 min and washed the column at 2% solvent-B for another 3 min comprising a total of 63 min run with a 45 min gradient in a data independent acquisition (DIA) mode MS scan parameters included a full scan using an orbitrap and 120,000 resolution, standard AGC target and maximum injection time of 30 ms. A second DIA experiment used the orbitrap at […] resolution, a precursor scan range of 200-1200 m/z with a normalized AGC target of 3000% and 45 variable isolation windows. Peptides were isolated and fragmented using stepped […] (HCD) at 24%, 28% and 32% normalized collision energy. Peptide identification was carried out in DIA-NN 1.8.1 using standard settings and an in silico spectral library generated from Uniprot P. falciparum (UP000001450) and human (UP000005640) reference proteomes. The peptide length range was set to 7-30 amino acids. […] Subsequently, the differential abundance analysis (moderated t-test, based on limma package[81]) of P. falciparum proteins was conducted in the R environment (R version 4.2.0; R Studio Version 2023.12.1 + 402) using precursor normalised MaxLFQ data for proteins detected with ≥2 peptides. […]

[2] = tested on: PF3D7_1463500 (START-domain protein); settings: 100 µM W-991 vs DMSO; Fig S4E
Procedure: as §1, §2, §3

[3] = tested on: merozoites-associated armadillo repeats protein (MAAP, PF3D7_1035900); settings: 100 µM W-991 vs DMSO; 7-25% AEF
Procedure: as §1, §2, §3

[4] = tested on: ring-infected erythrocyte surface antigen (RESA3, PF3D7_1149200); settings: 100 µM W-991 vs DMSO; 7-25% AEF
Procedure: as §1, §2, §3

[5] = tested on: signal recognition particle subunit (SRP19, PF3D7_1216300); settings: 100 µM W-991 vs DMSO; 7-25% AEF
Procedure: as §1, §2, §3

## CC(C)(Nc1ccc(Cl)c(S(=O)(=O)N2CCOCC2)c1)C(=O)Nc1ccc(F)c(Cl)c1 [W-991]
[1]
  abundance/stability of the protein on compound treatment: not affected
[2]
  abundance/stability of the protein on compound treatment: not affected
[3]
  soluble protein level in the presence of compound (stabilisation): drug-stabilised
[4]
  soluble protein level in the presence of compound (stabilisation): drug-stabilised
[5]
  soluble protein level in the presence of compound (stabilisation): drug-stabilised
